According to ChEMBL document CHEMBL1909046, “DrugMatrix in vitro pharmacology data”:

Legend:
[1] = target: Platelet-activating factor receptor (Homo sapiens, UniProt P25105); assay: biochemical; assay type: tissue-based; settings: platelet; also: in other assays of this panel Not Active means under 50% inhibition at 10 µM
[2] = DRUGMATRIX: Nicotinic Acetylcholine radioligand binding (ligand: [125I] Epibatidine); assay type: cell membranes, Membrane; settings: imr-32; Not Active = under 50% inhibition at 10 µM
[3] = DRUGMATRIX: Atrial Natriuretic Factor (ANF) radioligand binding (ligand: [125I] ANF (rat)); assay type: cell membranes, Cavia porcellus, Dunkin-Hartley, Adrenal gland, Membrane; settings: Not Active = under 50% inhibition at 10 µM
[4] = target: Protein kinase C alpha type (Homo sapiens, UniProt P17252); assay type: cell-based; settings: sf9;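 also: inhibition of PKCalpha kinase activity measured in an enzyme assay with histone as the phosphorylation substrate; in other assays of this panel Not Active means under 50% inhibition at 10 µM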
[5] = target: Prostaglandin G/H synthase 1 (Homo sapiens, UniProt P23219); assay: biochemical; assay type: tissue-based, Platelet; settings: platelet;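 also: inhibition of COX-1 enzyme activity, with arachidonic acid supplied as substrate; in other assays of this panel Not Active means under 50% inhibition at 10 µM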
Prostaglandin G/H synthase 1, sequence (P23219 whole entry): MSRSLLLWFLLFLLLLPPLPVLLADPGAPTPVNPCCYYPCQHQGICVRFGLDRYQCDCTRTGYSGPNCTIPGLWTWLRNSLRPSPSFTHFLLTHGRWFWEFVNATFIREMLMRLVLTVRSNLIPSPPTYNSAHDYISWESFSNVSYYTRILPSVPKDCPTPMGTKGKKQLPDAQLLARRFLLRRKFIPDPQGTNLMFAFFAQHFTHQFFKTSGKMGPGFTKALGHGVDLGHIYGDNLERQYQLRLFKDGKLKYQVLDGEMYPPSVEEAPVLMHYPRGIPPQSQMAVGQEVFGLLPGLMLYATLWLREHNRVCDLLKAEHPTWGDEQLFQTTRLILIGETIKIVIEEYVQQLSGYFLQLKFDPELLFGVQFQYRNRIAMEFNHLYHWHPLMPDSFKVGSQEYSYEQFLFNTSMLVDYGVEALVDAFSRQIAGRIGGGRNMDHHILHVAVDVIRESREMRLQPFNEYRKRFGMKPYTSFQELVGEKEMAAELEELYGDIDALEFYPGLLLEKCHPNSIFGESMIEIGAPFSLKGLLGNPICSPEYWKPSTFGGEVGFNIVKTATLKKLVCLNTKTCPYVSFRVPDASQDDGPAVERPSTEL

[6] = DRUGMATRIX: Tumor Necrosis Factor (TNF), Non-Selective radioligand binding (ligand: [125I] TNF-alpha); assay type: cell membranes, Membrane; settings: u-937; Not Active = under 50% inhibition at 10 µM
Caspase-1 = target: T1, Caspase-1 (Homo sapiens, UniProt P29466); design: species or system Escherichia coli;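 also: Caspase-1 enzyme inhibition assay with a peptide substrate; in other assays of this panel Not Active means under 50% inhibition at 10 µM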
T1 sequence (P29466 whole entry): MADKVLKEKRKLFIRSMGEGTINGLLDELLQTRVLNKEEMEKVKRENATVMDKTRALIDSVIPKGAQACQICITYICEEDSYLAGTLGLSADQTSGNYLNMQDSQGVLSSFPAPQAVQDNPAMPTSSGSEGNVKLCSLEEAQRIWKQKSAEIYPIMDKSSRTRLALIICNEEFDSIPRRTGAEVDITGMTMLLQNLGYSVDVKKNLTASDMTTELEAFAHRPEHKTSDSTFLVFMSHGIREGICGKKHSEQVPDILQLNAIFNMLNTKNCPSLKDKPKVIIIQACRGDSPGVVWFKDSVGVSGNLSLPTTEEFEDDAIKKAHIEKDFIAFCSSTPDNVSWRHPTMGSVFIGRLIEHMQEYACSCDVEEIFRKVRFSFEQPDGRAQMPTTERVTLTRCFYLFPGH

[7] = target: T2, Angiotensin-converting enzyme (Oryctolagus cuniculus, UniProt P12822); assay: biochemical; assay type: tissue-based, Lung
T2 sequence (P12822 whole entry): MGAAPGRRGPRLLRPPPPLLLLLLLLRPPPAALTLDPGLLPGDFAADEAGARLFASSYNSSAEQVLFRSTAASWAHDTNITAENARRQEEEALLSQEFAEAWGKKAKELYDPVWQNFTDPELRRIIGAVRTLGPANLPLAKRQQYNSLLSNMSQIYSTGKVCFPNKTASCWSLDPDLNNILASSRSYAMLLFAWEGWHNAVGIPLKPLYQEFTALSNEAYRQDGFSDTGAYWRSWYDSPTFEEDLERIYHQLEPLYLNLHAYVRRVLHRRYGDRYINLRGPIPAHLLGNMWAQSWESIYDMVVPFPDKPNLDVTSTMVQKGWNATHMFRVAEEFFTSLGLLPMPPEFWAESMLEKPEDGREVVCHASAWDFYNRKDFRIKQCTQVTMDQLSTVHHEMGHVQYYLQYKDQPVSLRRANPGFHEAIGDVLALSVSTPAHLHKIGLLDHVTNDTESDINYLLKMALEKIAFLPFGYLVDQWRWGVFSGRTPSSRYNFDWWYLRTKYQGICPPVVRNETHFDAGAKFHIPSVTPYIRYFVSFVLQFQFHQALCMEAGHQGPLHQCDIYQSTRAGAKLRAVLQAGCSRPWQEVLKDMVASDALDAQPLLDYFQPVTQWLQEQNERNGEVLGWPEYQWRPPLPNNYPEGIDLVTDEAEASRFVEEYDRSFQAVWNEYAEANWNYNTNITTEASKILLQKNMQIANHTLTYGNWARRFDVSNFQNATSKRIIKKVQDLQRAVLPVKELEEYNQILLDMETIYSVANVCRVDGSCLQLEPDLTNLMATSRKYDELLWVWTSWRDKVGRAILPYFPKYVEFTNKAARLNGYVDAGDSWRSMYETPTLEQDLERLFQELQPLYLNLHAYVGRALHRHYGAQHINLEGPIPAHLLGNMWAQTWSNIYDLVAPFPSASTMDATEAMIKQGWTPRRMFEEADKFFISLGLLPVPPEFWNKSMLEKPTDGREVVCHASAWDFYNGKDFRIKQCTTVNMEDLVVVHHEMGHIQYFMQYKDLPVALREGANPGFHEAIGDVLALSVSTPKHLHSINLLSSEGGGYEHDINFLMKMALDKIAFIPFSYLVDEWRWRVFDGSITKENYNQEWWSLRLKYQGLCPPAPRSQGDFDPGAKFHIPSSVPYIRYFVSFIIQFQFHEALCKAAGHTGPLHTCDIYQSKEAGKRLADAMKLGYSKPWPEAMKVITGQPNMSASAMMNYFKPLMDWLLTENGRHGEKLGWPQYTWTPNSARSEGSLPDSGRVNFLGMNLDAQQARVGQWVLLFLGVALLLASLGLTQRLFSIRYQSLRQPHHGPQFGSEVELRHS

Cytochrome P450 3A4 = Cytochrome P450 3A4 (Homo sapiens, UniProt P08684); settings: bti-tn-5b1-4; also: in other assays of this panel Not Active means under 50% inhibition at 10 µM
Cytochrome P450 3A4, sequence (P08684 whole entry): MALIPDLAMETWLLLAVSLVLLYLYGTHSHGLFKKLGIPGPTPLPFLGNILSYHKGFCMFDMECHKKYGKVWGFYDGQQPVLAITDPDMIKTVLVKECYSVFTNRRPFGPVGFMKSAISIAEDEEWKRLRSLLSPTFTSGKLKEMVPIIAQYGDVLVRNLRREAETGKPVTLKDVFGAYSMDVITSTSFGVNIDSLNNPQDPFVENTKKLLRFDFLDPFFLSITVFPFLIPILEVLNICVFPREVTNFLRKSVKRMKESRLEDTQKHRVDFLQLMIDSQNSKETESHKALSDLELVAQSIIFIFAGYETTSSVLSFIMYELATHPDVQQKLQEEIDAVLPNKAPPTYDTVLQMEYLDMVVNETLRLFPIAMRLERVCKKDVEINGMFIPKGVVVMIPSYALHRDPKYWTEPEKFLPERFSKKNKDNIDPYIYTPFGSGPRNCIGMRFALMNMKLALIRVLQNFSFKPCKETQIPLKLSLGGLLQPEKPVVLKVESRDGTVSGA

[8] = DRUGMATRIX: Glutamate, NMDA, Agonism radioligand binding (ligand: [3H] CGP-39653); assay type: cell membranes, Rattus norvegicus, Wistar, Cerebral cortex, Membrane; settings: Not Active = under 50% inhibition at 10 µM
[9] = target: T3, 5-hydroxytryptamine receptor 2C (Homo sapiens, UniProt P28335); assay: DRUGMATRIX: Serotonin (5-Hydroxytryptamine) 5-HT2C radioligand binding (ligand: [3H] Mesulergine); assay type: cell membranes, CHO-K1, Membrane; settings: cho-k1; Not Active = under 50% inhibition at 10 µM
T3 sequence (P28335 whole entry): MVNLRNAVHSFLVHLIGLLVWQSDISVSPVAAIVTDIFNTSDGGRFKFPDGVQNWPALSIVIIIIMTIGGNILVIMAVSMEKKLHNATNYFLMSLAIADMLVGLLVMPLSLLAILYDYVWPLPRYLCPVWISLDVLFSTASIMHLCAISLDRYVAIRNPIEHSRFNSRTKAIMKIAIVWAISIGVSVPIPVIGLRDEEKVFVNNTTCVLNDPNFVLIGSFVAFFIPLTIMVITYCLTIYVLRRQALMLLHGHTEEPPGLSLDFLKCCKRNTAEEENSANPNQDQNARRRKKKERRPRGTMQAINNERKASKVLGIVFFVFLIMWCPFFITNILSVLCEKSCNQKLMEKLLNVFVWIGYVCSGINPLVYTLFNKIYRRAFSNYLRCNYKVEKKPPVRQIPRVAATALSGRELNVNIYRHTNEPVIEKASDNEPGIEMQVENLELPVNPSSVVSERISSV

[10] = target: Beta-2 adrenergic receptor (Homo sapiens, UniProt P07550); assay: DRUGMATRIX: Adrenergic beta2 radioligand binding (ligand: [3H] CGP-12177); assay type: cell membranes, Membrane; settings: cho; Not Active = under 50% inhibition at 10 µM
Beta-2 adrenergic receptor, sequence (P07550 whole entry): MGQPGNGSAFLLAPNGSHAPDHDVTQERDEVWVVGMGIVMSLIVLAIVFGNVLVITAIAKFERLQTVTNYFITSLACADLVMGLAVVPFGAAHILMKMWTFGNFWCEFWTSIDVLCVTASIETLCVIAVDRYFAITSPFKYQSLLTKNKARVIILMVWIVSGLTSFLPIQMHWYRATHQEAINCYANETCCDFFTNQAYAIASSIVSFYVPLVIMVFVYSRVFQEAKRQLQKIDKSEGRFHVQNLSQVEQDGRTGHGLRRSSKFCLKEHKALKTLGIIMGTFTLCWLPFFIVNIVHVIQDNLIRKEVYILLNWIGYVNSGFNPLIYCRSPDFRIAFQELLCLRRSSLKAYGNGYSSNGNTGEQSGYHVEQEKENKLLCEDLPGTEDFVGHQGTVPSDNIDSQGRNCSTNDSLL

Platelet-activating factor receptor, sequence (P25105 whole entry): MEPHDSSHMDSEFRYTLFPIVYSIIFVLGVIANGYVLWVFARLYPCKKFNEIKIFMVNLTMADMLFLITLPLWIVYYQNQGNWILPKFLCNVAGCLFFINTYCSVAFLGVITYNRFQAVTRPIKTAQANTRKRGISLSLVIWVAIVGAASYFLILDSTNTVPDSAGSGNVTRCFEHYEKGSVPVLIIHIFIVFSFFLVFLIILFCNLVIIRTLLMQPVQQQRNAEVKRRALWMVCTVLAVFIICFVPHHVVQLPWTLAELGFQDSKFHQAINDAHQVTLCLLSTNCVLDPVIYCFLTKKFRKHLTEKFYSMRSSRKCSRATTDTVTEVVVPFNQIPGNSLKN

CCOC(=O)OC(C)OC1=C(C(=O)Nc2ccccn2)N(C)S(=O)(=O)c2ccccc21 (configuration not stated) [AMPIROXICAM]
Not Active: IC50 [1] | IC50 [2] | Ki [2] | IC50 [3] | Ki [3] | IC50 [4] | IC50 [5] | IC50 [6] | Ki [6] | IC50 (Caspase-1) | IC50 [7] | IC50 (Cytochrome P450 3A4) | Ki (Cytochrome P450 3A4) | IC50 [8] | Ki [8] | IC50 [9] | IC50 [10]

N#C[C@H](O[C@@H]1O[C@H](CO[C@@H]2O[C@H](CO)[C@@H](O)[C@H](O)[C@H]2O)[C@@H](O)[C@H](O)[C@H]1O)c1ccccc1 [AMYGDALIN]
Not Active: IC50 [1] | IC50 [2] | Ki [2] | IC50 [3] | Ki [3] | IC50 [4] | IC50 [5] | IC50 [6] | Ki [6] | IC50 (Caspase-1) | IC50 [7] | IC50 (Cytochrome P450 3A4) | Ki (Cytochrome P450 3A4) | IC50 [8] | Ki [8] | IC50 [9] | IC50 [10]

N=C(N)NCCCCNC(=N)N.O=S(=O)(O)O [ARCAINE SULFATE]
Not Active: IC50 [1] | IC50 [2] | Ki [2] | IC50 [3] | Ki [3] | IC50 [4] | IC50 [5] | IC50 [6] | Ki [6] | IC50 (Caspase-1) | IC50 [7] | IC50 (Cytochrome P450 3A4) | Ki (Cytochrome P450 3A4) | IC50 [8] | Ki [8] | IC50 [9] | IC50 [10]

C=C1[C@@H]2CCC3[C@@](CC[C@@H]4[C@H](C(=O)O)C[C@@H](O[C@@H]5O[C@H](CO)[C@@H](OS(=O)(=O)[O-])[C@H](OS(=O)(=O)[O-])[C@H]5OC(=O)CC(C)C)C[C@@]34C)(C2)[C@@H]1O.[K+].[K+] (some centres not stated) [ATRACTYLOSIDE]
Not Active: IC50 [1] | IC50 [2] | Ki [2] | IC50 [3] | Ki [3] | IC50 [4] | IC50 [5] | IC50 [6] | Ki [6] | IC50 (Caspase-1) | IC50 [7] | IC50 (Cytochrome P450 3A4) | Ki (Cytochrome P450 3A4) | IC50 [8] | Ki [8] | IC50 [9] | IC50 [10]

Cn1cnc([N+](=O)[O-])c1Sc1ncnc2nc[nH]c12 [AZATHIOPRINE]
Not Active: IC50 [1] | IC50 [2] | Ki [2] | IC50 [3] | Ki [3] | IC50 [4] | IC50 [5] | IC50 [6] | Ki [6] | IC50 (Caspase-1) | IC50 [7] | IC50 (Cytochrome P450 3A4) | Ki (Cytochrome P450 3A4) | IC50 [8] | Ki [8] | IC50 [9] | IC50 [10]

CC1(C)S[C@@H]2[C@H](NC(=O)[C@H](NC(=O)N3CCNC3=O)c3ccccc3)C(=O)N2[C@H]1C(=O)O [AZLOCILLIN]
Not Active: IC50 [1] | IC50 [2] | Ki [2] | IC50 [3] | Ki [3] | IC50 [4] | IC50 [5] | IC50 [6] | Ki [6] | IC50 (Caspase-1) | IC50 [7] | IC50 (Cytochrome P450 3A4) | Ki (Cytochrome P450 3A4) | IC50 [8] | Ki [8] | IC50 [9] | IC50 [10]
